Data set [1] deals with serum lipids. As to the kind of experiment: Lipid-lowering action in normolipemic rats. Type of data set: in vivo. Particulars: Rattus norvegicus, 72 h, 4 × 100 mg/kg oral over 3 days, male Wistar rats, vs controls, X ± Sx. On the procedure: Lipid-lowering action was tested on groups of 10 male Wistar rats (Ivanovas-Kisslegg), weight 200-220 g, normolipemic, or ordinary ration ("ssniff" complete feed).
The test compounds were taken up in an aqueous solution of 0.25% agar and 0.85% NaCl and administered orally. After administration of 4 × 100 mg/kg over a period of 3 days, the animals were bled by cardiac puncture after privation of […] for 4 hours.^1
^1 H. Enomoto and R. Zschocke, 3rd Int. Symp. Atheroscler, Berlin 1973, Abstr. 238.
Serum lipids were determined with a Technicon autoanalyzer. Total cholesterol (TC) was tested by the Liebermann-Burchard reaction. Quantitative analysis for triglycerides (TG) was performed by Eggstein and Kreutz's enzyme method (Klin. Wschr. 44, 262, 1966), modified for autoanalyzer.
Lipid lowering effect is expressed as percent lowering of total cholesterol and triglycerides compared to controls.

Data set [2] in a line: Oral tolerance (acute toxicity, LD50). To be noted: mouse, in vivo, mice, 8th day after treatment, Litchfield-Wilcoxon. As to the method: After oral administration of the test compounds to mice of strain NMR-I, weight 15-20 g, the acute toxicity was determined. LD50 values were calculated following Litchfield-Wilcoxon (J. Pharmak. Exp. Therap. 96, 99, 1949) and pertain to the 8th day after treatment.

Setting [3] is: read-out: % Lowering TC (total cholesterol).
Where [4] appears, read: read-out: % Lowering TG (triglycerides).

Like-named read-outs stand apart in the source and are kept apart here.

For orientation: LD50 means the dose expected to kill half of the subjects tested. Read a low LD50 as greater toxicity. `CCOC(=O)C(C)(C)Oc1ccc(Cl)cc1` [clofibrate, 2-(4'-chlorophenoxy)-2-methylpropionic acid ethyl ester, reference compound]: the inhibition in vivo at 100 mg/kg in data set [1] (setting [3]) was found to be 37.4 ± 13.6%; in data set [1] (setting [4]), 50.4 ± 20%. The LD50 at 192 h in data set [2] amounted to 1900 mg/kg.
Turning to `CC(C)(C)c1ccc(SCC(O)COc2ccc(C(=O)O)cc2)cc1` (centres unmarked) [Compound 80, 3-(4'-Carboxyphenoxy)-1-(4'-t-butylphenylmercapto)-propanol-(2)], the values for the inhibition in vivo at 100 mg/kg in data set [1] (setting [3]) and in data set [1] (setting [4]) were 48.2 ± 11.6% and 71.6 ± 18.6%, respectively.
With `C=CCOC(=O)c1ccc(OCC(O)COc2ccc(C(C)(C)C)cc2)cc1` (centres unmarked) [Compound 17], the figures for the inhibition in vivo at 100 mg/kg in data set [1] (setting [3]) and in data set [1] (setting [4]) were 55.8 ± 7.1% and 83.4 ± 8.8%, respectively.
Take `COC(=O)CCc1ccc(OCC(O)COc2ccc(Cl)cc2)cc1` (centres unmarked) [Compound 9]: the inhibition in vivo at 100 mg/kg is 44.5 ± 17.5% in data set [1] (setting [3]) and 87.9 ± 11.9% in data set [1] (setting [4]).
For the molecule `C=CCOC(=O)c1ccc(OCC(O)COc2ccc(Cl)cc2)cc1` (centres unmarked) [Compound 3], the inhibition in vivo at 100 mg/kg in data set [1] (setting [3]) is 35.9 ± 18.1%; in data set [1] (setting [4]), 68.6 ± 11%.
Consider `CCCOC(=O)C=Cc1ccc(OCC(O)COc2ccc(Cl)cc2)cc1` (centres unmarked) [Compound 12], for which the inhibition in vivo at 100 mg/kg in data set [1] (setting [3]) was found to be 40.3 ± 10.8%; in data set [1] (setting [4]), 67 ± 15.7%.
As to `CC(C)(C)c1ccc(NCC(O)COc2ccc(C(=O)O)cc2)cc1` (centres unmarked) [Compound 72, 3-(4'-Carboxyphenoxy)-1-(4'-t-butylphenylamino)-propanol-(2)], the inhibition in vivo at 100 mg/kg was determined as 53.7 ± 10.4% in data set [1] (setting [3]) and 75.1 ± 9.9% in data set [1] (setting [4]).
In the case of `COC(OC)c1ccc(OCC(O)CSc2ccc(Cl)cc2)cc1` (centres unmarked) [Compound 116], the inhibition in vivo at 100 mg/kg is 43.2 ± 9.8% in data set [1] (setting [3]) and 74 ± 9.8% in data set [1] (setting [4]).
Take `O=C(C=Cc1ccc(OCC(O)COc2ccc(Cl)cc2)cc1)OCCO` (centres unmarked) [Compound 46]: the results for the inhibition in vivo at 100 mg/kg in data set [1] (setting [3]) and in data set [1] (setting [4]) were 32.3 ± 19.7% and 69.5 ± 8.9%, respectively.
As to `CCOC(=O)c1ccc(OCC(O)COc2ccc(Cl)cc2)cc1` (centres unmarked) [Compound 2], the inhibition in vivo at 100 mg/kg in data set [1] (setting [3]) was found to be 40.4 ± 24.3%; in data set [1] (setting [4]), 60.2 ± 8.4%.
On to `CC(C)(C)c1ccc(OCC(O)COc2ccc(CCC(=O)O)cc2)cc1` (centres unmarked) [Compound 62, 3-4'-(2-Carboxyathyl)-phenoxy!-1-(4'-t-butylphenoxy)-propanol-(2)], for which the inhibition in vivo at 100 mg/kg in data set [1] (setting [3]) was determined as 38.7 ± 15%; in data set [1] (setting [4]), 91.9 ± 5%.
